# In paper PMC6199309, “A therapeutic approach to pantothenate kinase associated neurodegeneration” (Nature Communications, 2018):
# Tests used:
# [1] = biological target: T1, ABL1(Q252H)-nonphosphorylated (Homo sapiens, UniProt P00519, Q252H); experiment: KINOMEscan; format: binding; conditions: read-out: %Ctrl @ 10000nM
# T1 construct: purchased DiscoverX KINOMEscan
# ALK = biological target: T2, ALK (Homo sapiens, UniProt Q9UM73); experiment: KINOMEscan; format: binding; conditions: read-out: %Ctrl @ 10000nM
# T2 construct: purchased DiscoverX KINOMEscan
# DMPK2 = biological target: T3, DMPK2 (Homo sapiens, UniProt Q6DT37); experiment: KINOMEscan; format: binding; conditions: read-out: %Ctrl @ 10000nM
# T3 construct: purchased DiscoverX KINOMEscan
# FLT1 = biological target: T4, FLT1 (Homo sapiens, UniProt P17948); experiment: KINOMEscan; format: binding; conditions: read-out: %Ctrl @ 10000nM
# T4 construct: purchased DiscoverX KINOMEscan
# FYN = biological target: T5, FYN (Homo sapiens, UniProt P06241); experiment: KINOMEscan; format: binding; conditions: read-out: %Ctrl @ 10000nM
# T5 construct: purchased DiscoverX KINOMEscan
# T5 sequence (P06241 whole entry): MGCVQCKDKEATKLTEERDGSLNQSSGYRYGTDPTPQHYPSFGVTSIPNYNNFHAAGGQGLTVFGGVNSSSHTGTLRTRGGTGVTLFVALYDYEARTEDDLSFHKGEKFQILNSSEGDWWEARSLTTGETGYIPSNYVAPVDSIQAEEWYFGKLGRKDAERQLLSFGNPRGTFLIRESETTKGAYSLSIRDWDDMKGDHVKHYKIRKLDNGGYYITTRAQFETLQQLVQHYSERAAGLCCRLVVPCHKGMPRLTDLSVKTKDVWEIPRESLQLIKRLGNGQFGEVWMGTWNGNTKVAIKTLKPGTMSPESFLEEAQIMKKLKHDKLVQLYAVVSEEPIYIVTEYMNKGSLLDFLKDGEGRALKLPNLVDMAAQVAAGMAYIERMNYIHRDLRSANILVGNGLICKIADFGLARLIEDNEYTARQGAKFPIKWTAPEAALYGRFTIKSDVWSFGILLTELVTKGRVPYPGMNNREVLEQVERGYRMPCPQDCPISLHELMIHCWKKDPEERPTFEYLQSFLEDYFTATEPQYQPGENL
# GAK = biological target: T6, GAK (Homo sapiens, UniProt O14976); experiment: KINOMEscan; format: binding; conditions: read-out: %Ctrl @ 10000nM
# T6 construct: purchased DiscoverX KINOMEscan
# MAP3K15 = biological target: T7, MAP3K15 (Homo sapiens, UniProt Q6ZN16); experiment: KINOMEscan; format: binding; conditions: read-out: %Ctrl @ 10000nM
# T7 construct: purchased DiscoverX KINOMEscan
# T7 sequence (Q6ZN16 whole entry): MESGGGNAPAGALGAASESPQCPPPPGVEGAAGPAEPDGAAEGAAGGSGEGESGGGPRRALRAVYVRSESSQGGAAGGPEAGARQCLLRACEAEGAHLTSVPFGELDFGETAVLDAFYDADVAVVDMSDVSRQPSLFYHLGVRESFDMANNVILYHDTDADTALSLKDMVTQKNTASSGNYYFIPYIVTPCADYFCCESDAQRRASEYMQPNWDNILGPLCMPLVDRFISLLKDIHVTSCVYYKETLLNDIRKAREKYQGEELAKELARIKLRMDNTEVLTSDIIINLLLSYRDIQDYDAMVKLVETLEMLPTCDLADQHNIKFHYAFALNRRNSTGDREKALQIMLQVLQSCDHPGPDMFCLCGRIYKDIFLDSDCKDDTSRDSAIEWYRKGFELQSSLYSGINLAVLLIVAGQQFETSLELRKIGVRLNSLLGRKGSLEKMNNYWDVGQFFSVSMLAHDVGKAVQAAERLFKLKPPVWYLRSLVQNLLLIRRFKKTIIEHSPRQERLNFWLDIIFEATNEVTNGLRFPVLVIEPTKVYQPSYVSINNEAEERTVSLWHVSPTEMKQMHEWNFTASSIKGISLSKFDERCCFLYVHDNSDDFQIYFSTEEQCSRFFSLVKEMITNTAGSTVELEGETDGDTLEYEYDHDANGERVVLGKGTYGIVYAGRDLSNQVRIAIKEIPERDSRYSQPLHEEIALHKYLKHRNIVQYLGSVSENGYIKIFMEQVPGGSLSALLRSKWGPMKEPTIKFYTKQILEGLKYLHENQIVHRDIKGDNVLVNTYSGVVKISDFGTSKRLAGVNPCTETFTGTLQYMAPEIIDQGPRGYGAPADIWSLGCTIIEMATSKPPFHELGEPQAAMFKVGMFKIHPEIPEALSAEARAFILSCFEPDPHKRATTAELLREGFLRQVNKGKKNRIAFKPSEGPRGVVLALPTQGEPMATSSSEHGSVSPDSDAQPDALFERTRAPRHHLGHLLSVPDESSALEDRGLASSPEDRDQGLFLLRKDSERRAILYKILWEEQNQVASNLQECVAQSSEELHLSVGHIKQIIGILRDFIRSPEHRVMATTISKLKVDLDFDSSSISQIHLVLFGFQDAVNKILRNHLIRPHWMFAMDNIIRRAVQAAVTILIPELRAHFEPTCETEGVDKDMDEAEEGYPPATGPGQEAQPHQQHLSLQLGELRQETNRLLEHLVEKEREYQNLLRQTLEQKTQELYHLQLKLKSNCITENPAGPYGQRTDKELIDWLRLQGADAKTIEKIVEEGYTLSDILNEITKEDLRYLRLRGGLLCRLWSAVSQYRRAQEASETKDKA
# NEK3 = biological target: T8, NEK3 (Homo sapiens, UniProt P51956); experiment: KINOMEscan; format: binding; conditions: read-out: %Ctrl @ 10000nM
# T8 construct: purchased DiscoverX KINOMEscan
# T8 sequence (P51956 whole entry): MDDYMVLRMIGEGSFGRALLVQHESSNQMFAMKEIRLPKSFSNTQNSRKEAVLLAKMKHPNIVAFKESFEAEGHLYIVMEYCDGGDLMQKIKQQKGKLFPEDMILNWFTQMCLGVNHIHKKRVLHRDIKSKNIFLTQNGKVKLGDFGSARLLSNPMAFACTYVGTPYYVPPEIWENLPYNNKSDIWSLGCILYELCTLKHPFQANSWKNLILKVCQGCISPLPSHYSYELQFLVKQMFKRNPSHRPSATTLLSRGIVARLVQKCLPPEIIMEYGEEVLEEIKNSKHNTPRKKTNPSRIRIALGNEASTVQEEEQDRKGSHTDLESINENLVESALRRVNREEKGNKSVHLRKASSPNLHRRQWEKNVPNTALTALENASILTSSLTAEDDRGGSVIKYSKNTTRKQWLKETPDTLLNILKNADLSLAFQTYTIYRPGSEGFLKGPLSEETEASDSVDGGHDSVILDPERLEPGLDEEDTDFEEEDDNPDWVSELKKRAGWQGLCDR
# PDGFRB = biological target: T9, PDGFRB (Homo sapiens, UniProt P09619); experiment: KINOMEscan; format: binding; conditions: read-out: %Ctrl @ 10000nM
# T9 construct: purchased DiscoverX KINOMEscan
# T9 sequence (P09619 33-1106): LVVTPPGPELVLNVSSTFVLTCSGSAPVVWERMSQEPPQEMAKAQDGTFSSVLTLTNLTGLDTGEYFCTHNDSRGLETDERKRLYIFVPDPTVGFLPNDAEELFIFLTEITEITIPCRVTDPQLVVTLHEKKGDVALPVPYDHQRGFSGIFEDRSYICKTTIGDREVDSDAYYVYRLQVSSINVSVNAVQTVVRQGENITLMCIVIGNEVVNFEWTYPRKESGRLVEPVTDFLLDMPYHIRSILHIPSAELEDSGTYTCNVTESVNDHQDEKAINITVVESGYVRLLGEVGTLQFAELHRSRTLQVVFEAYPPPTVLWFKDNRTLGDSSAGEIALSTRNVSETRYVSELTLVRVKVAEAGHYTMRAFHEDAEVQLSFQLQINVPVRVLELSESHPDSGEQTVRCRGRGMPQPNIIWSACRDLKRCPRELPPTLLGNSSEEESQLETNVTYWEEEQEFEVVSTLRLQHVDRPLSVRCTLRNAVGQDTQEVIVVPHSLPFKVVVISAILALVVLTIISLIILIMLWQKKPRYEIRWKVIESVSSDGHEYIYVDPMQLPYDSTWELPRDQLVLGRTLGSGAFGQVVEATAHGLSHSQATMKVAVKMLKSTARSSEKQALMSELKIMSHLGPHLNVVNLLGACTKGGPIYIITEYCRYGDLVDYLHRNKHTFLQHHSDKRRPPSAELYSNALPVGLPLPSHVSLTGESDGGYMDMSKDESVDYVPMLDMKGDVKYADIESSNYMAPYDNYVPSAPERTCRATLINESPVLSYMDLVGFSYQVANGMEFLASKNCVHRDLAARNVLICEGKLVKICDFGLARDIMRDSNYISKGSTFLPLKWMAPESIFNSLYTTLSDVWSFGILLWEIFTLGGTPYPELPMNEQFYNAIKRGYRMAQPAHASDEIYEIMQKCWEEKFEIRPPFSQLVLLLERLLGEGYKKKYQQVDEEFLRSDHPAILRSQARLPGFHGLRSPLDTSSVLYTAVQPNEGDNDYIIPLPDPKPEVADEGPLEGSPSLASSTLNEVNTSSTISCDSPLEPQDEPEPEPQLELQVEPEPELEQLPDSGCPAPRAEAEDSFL
# PIK3CA(I800L) = biological target: T10, PIK3CA(I800L) (Homo sapiens, UniProt P42336, I800L); experiment: KINOMEscan; format: binding; conditions: read-out: %Ctrl @ 10000nM
# T10 construct: purchased DiscoverX KINOMEscan
# PRKD3 = biological target: T11, PRKD3 (Homo sapiens, UniProt O94806); experiment: KINOMEscan; format: binding; conditions: read-out: %Ctrl @ 10000nM
# T11 construct: purchased DiscoverX KINOMEscan
# SGK3 = biological target: T12, SGK3 (Homo sapiens, UniProt Q96BR1); experiment: KINOMEscan; format: binding; conditions: read-out: %Ctrl @ 10000nM
# T12 construct: purchased DiscoverX KINOMEscan
# SIK = biological target: T13, SIK (Homo sapiens, UniProt P57059); experiment: KINOMEscan; format: binding; conditions: read-out: %Ctrl @ 10000nM
# T13 construct: purchased DiscoverX KINOMEscan
# SNRK = biological target: T14, SNRK (Homo sapiens, UniProt Q9NRH2); experiment: KINOMEscan; format: binding; conditions: read-out: %Ctrl @ 10000nM
# T14 construct: purchased DiscoverX KINOMEscan
# SRPK1 = biological target: T15, SRPK1 (Homo sapiens, UniProt Q96SB4); experiment: KINOMEscan; format: binding; conditions: read-out: %Ctrl @ 10000nM
# T15 construct: purchased DiscoverX KINOMEscan
# T15 sequence (Q96SB4 whole entry): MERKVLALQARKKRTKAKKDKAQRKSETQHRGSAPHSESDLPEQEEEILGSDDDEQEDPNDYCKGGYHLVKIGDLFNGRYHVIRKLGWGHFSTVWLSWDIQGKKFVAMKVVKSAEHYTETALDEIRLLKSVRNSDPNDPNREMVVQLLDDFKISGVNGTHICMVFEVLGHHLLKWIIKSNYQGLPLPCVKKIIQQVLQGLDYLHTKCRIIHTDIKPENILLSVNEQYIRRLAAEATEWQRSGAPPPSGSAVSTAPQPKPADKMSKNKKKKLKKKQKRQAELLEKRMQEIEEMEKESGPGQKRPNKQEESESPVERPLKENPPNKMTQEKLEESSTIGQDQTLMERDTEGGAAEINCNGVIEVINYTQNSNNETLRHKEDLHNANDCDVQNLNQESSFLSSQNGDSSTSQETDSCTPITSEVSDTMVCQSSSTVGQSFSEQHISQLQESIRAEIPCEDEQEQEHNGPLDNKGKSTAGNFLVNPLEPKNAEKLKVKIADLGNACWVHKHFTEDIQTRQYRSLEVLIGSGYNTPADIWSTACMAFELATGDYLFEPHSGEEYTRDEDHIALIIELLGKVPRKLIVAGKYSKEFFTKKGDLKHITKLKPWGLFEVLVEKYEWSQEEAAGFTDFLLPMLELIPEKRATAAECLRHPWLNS
# TAOK1 = biological target: T16, TAOK1 (Homo sapiens, UniProt Q7L7X3); experiment: KINOMEscan; format: binding; conditions: read-out: %Ctrl @ 10000nM
# T16 construct: purchased DiscoverX KINOMEscan
# TGFBR2 = biological target: T17, TGFBR2 (Homo sapiens, UniProt P37173); experiment: KINOMEscan; format: binding; conditions: read-out: %Ctrl @ 10000nM
# T17 construct: purchased DiscoverX KINOMEscan
# T17 sequence (P37173 23-567): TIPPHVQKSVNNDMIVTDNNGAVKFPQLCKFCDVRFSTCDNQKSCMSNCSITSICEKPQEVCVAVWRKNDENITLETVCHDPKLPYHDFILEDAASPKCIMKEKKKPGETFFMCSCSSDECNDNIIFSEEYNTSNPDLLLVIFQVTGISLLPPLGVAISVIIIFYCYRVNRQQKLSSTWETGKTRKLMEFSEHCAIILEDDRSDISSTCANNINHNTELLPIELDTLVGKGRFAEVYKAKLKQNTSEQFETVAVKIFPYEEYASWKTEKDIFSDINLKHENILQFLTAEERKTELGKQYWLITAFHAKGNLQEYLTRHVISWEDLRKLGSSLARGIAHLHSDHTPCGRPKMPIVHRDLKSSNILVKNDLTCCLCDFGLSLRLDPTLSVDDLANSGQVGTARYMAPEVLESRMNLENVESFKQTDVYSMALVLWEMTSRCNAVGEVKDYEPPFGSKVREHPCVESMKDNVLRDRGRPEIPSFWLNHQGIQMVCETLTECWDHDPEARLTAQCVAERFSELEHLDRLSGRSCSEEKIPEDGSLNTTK
# TSSK3 = biological target: T18, TSSK3 (Homo sapiens, UniProt Q96PN8); experiment: KINOMEscan; format: binding; conditions: read-out: %Ctrl @ 10000nM
# T18 construct: DNA label for qPCR (T7 phage fusion or DNA tag); purchased DiscoverX scanMAX; host or cells: E. coli BL21-derived (T7 phage) or HEK-293
# T18 sequence (Q96PN8 whole entry, the tested form may be a part): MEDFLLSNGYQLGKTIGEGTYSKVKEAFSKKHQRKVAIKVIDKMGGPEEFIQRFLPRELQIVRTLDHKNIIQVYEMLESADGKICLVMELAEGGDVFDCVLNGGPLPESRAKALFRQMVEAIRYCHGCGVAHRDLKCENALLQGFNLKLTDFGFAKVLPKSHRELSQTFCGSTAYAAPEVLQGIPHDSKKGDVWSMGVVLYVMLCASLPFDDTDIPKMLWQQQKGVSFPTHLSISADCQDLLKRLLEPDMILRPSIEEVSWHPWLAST
# ULK3 = biological target: T19, ULK3 (Homo sapiens, UniProt Q6PHR2); experiment: KINOMEscan; format: binding; conditions: read-out: %Ctrl @ 10000nM
# T19 construct: DNA label for qPCR (T7 phage fusion or DNA tag); purchased DiscoverX scanMAX; host or cells: E. coli BL21-derived (T7 phage) or HEK-293
# C3A cells = experiment: Intracellular CoA and metabolite levels in C3A cells; format: cell-based, human; conditions: 24 h
# Description: HEK293T cells (ATCC, #CRL-3216) were maintained in Dulbecco’s modified Eagle’s medium (DMEM, Biowhittaker/Lonza) supplemented with 10% FCS. Human C3A [HepG2/C3A, derivative of HepG2] cells (ATCC #CRL-10741) were purchased from ATCC® and maintained in Eagle’s minimum Essential medium (ATCC) supplemented with 2 mM glutamine, 10% fetal bovine serum (FCS, Altanta Biologicals), 50 U/ml penicillin and […] streptomycin. Both cell lines were confirmed to be mycoplasma-free. […]. […] After 24 h of treatment (total 48 h after transfection) the cells were washed with PBS and harvested and subjected to either total CoA or acetyl-CoA determinations.
# Prior to labeling, cells were seeded at a density of 2–3 × 10^6 in 60 mm-dishes in reconstituted DMEM without added pantothenate and allowed to adhere overnight. The labeling was initiated by replacing the medium with 2 ml of labeling medium containing 0.1% dimethylsulfoxide (DMSO; control) or 10 μM of the compound in 0.1% DMSO. Cells were incubated for 24 h, the labeling medium was removed, and cells were washed with phosphate buffered saline and lysed by sonication in 20 mM Tris-HCl, pH 7.5, 2 mM DTT, 5 mM EDTA and 50 mM NaF. The lysates were fractionated by thin-layer chromatography after removal of the cell debris by centrifugation. The samples were spotted on Silica Gel H plates and resolved with 95% ethanol:28% ammonium hydroxide (4/1, v/v). The distribution of radioactivity on the plate was quantified using a Bioscan Imager (Bioscan, Inc.) together with quantification of the total cellular radioactivity determined by a Liquid Scintillation Analyzer (PerkinElmer Tri-Carb 2910 TR). Triplicate culture dishes were labeled for each group plus a dish for each group for determination of cell counts and viability using a Nucleocounter (New Brunswick Scientific) according to the manufacturer’s directions. The experiments were repeated twice in duplicate and the data represented is an overall average ± SEM.
# Cultured cells or frozen tissues were resuspended in 2 ml cold water to which 500 μl of 0.25 M KOH was added, derivatized with monobromobimane (mBBr, Life technologies) and quantified by HPLC[23]. For acetyl-CoA determinations, C3A cells were resuspended in 1 ml water, added to 2 ml of methanol and 1 ml chloroform, and incubated on ice for 15 min. Chloroform 1.5 ml, 1.2 ml water and 30 pmol of [^13C2]acetyl-CoA (Sigma) was added, and centrifuged at 2000×g for 10 min. The top layer was loaded on a 2-(2-pyridyl) ethyl solid phase extraction column which was equilibrated with 1 ml 50% methanol/2% acetic acid. The column was washed twice with 1 ml 50% methanol/2% acetic acid and 1 ml water. CoA and thioesters were eluted twice with 1 ml 95% ethanol containing 50 mM ammonium hydroxide. Samples were resuspended in 90% methanol containing 15 mM ammonium hydroxide.
# The mBBr derivatized sample was fractionated by reverse-phase HPLC using a Gemini C18 3 μm column (150 × 4.60 mm) from Phenomenex. The chromatography system was a Waters e2695 separation module with a UV/Vis and fluorescence detector and controlled by Empower 3 software. Solvent A was 50 mM potassium phosphate pH 4.6, and solvent B was 100% acetonitrile. Twenty microliters of sample was injected onto the column, and the flow rate was 0.5 ml/min. The HPLC program was the following: starting solvent mixture of 90% A/10% B, 0–2 min isocratic with 10% B, 2–6 min linear gradient from 10% B to 15% B, 6–18 min concave gradient from 15% B to 40% B, 18–23 min isocratic with 40% B, 23–25 min linear gradient from 40 to 10%, and 25–30 min isocratic with 10% B. The UV/vis detector was set at 393 nm, and the fluorescence detector was set with excitation at 393 nm and emission at 470 nm. […]
structure (smiles),measurement,setting,value
"CC(C)c1ccc(CC(=O)N2CCN(c3ccc(C#N)nn3)CC2)cc1 [PZ-2891, 6-(4-(2-(4-isopropylphenyl)acetyl)piperazin-1-yl)pyridazine-3-carbonitrile]",remaining binding at 10 µM,[1],97%
same,remaining binding at 10 µM,ALK,100%
same,remaining binding at 10 µM,DMPK2,93%
same,remaining binding at 10 µM,FLT1,100%
same,remaining binding at 10 µM,FYN,87%
same,remaining binding at 10 µM,GAK,93%
same,remaining binding at 10 µM,MAP3K15,92%
same,remaining binding at 10 µM,NEK3,69%
same,remaining binding at 10 µM,PDGFRB,75%
same,remaining binding at 10 µM,PIK3CA(I800L),42%
same,remaining binding at 10 µM,PRKD3,66%
same,remaining binding at 10 µM,SGK3,71%
same,remaining binding at 10 µM,SIK,83%
same,remaining binding at 10 µM,SNRK,85%
same,remaining binding at 10 µM,SRPK1,100%
same,remaining binding at 10 µM,TAOK1,93%
same,remaining binding at 10 µM,TGFBR2,98%
same,remaining binding at 10 µM,TSSK3,69%
same,remaining binding at 10 µM,ULK3,89%
same,intracellular CoA ([3H]pantothenate labeling),"C3A cells; 10 μM, C3A cells",increased the amount of intracellular CoA
same,intracellular pantothenate ([3H]pantothenate labeling),"C3A cells; 10 μM, C3A cells",lowered intracellular pantothenate
same,acetyl-CoA levels in C3A cells,"C3A cells; 10 μM, mass spectrometry",higher acetyl-CoA levels
same,total intracellular CoA levels in C3A cells,C3A cells; increasing concentrations (20 and 50 μM less activating),CoA progressively increased up to 10 μM
